Test system: 4-1BB variant second-generation ('BBz') CARs that target CD19 or HER2
Assay: Surface CAR expression in Jurkat T cells by anti-myc antibody stain and flow cytometry
Format: cell-based
Settings: 72 hours after removal of lentivirus
Description: FIG. 4A: Tethering of STUD to plasma membrane allows for functional knockdown for second-generation chimeric antigen receptors (CAR). Cartoon diagram of membrane tethered STUD (‘memSTUD’) and non-functional (‘NF’) control relative to original ‘soluble’ STUD design. The DNA cartoon represents the plasmid used in experiments done in this panel. (RRRG (SEQ ID NO:32); TRGN (SEQ ID NO:50)).
FIG. 4B: Plasmid diagramed in FIG. 4A transduced into Jurkat T cells and CAR fluorescence measured 72 hours removal of lentivirus. CAR fluorescence is measured by antibody stain for myc tag fused to CAR extracellular domain. […] Dots represent three independent experiments and errors bars show standard deviation.
Increasing the local concentration of the STUD at the membrane by fusion to a membrane localization domain was tested. […] The surface CAR expression by fluorescence of this antibody stain was measured by flow cytometry.
Membrane targeting STUD: Membrane targeting cells were introduced by lentiviral transduction of two plasmids. […] Cells were then analyzed by flow cytometry. Cells were gated on expression of co-transduction fluorescent proteins (BFP/mCherry) and STUD efficacy was measured by knockdown of CAR/SynNotch. CAR and SynNotch expression was measured by antibody staining for a peptide tag fused to the extracellular domain of the CAR/SynNotch. […]

## SynZip STUD: Fusion protein SEQ ID NO: 413: lysine-free modified synZIP18 heterodimerization domain, flexible linker, C-terminal RRRG degron; 55 amino acids (SIAATLENDLARLENENARLERDIANLERDLARLEREEAYFGSGSGSGSGSRRRG)
  degradation of CAR (surface CAR expression): inefficiently

From patent US20250136652A1, “FUSION PROTEIN FOR TARGETING RECOMBINANT PROTEINS FOR DEGRADATION” (The Regents of the University of California, priority 2022, published 2025)
